Assay: recombinant UMI read abundance after kanamycin selection (control-corrected) (log10(CPM+1)); higher = more efficient recombination; extreme values may be limits of the assay; sequences stand for … in AGTGCAGAGAAAATCGGCCAGTTTTCTCTGCCTGCAGTCCGCATGCCGTGGGACCCCTTGGGTTCTAACCTGTTGCCTAGATTTATGCAGCGGACTGCCTTTCTCCCAAAGTGATAAACCGG…AGGTTGGTTTCACT; site = the 11-nt donor
How it was run: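 Values are reported as log10(CPM+1), obtained by converting sequencing counts to CPM, averaging replicates and scaling by control-derived factors. The counts came from recombinant UMIs amplified by PCR across the donor–target junction. These UMIs came from a pooled Escherichia coli screen of donor and donor-binding-loop pairs for the IS621 bridge recombinase, plated with IPTG (0.07 mM) plus kanamycin or left unselected, in two replicates each.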
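Also: IS621 bridge recombinase in Escherichia coli cells against a fixed T5 target plasmid.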

“CAGGAGTCATGGACCGGTTTTCCCGGTAATCCGTATTTGCC (site CCGGAGTCTGG)” and “CAGGAGTCATGGACCGGTTTTCCCGGTAATCCGTATTTGCC (site CGGGAGTCTGG)” are the same in “recombinant UMI read abundance (log10)” value: 0 for the first, 0 for the second.

“CAGGAGTCATGGACCGGTTTTCCCGGTAATCCGTATTTGCC (site CTGGAGTCTGG)” and “CAGGCAGCATGGACCGGTTTTCCCGGTAATCCGTATTTGCT (site CAAGCAGCTAG)” are within 0.2 log units of each other in “recombinant UMI read abundance (log10)” value: 1.73 for the first, 1.66 for the second.

Compared with “CAGGCAGCATGGACCGGTTTTCCCGGTAATCCGTATTTGCT (site CACGCAGCTAG)”, “CAGGCAGCATGGACCGGTTTTCCCGGTAATCCGTATTTGCT (site CAGGCAGCTAG)” is higher in “recombinant UMI read abundance (log10)” value: 0 for the first, 1.92 for the second.

“CAGGCAGCATGGACCGGTTTTCCCGGTAATCCGTATTTGCT (site CATGCAGCTAG)” and “CAGGCGACATGGACCGGTTTTCCCGGTAATCCGTATTTGGG (site CAGACGACTCC)” are within 0.2 log units of each other in “recombinant UMI read abundance (log10)” value: 0 for the first, 0.0355 for the second.

“CAGGCGACATGGACCGGTTTTCCCGGTAATCCGTATTTGGG (site CAGCCGACTCC)” and “CAGGCGACATGGACCGGTTTTCCCGGTAATCCGTATTTGGG (site CAGGCGACTCC)” are within 0.2 log units of each other in “recombinant UMI read abundance (log10)” value: 0.0323 for the first, 0.209 for the second.

Going from “CAGGCGACATGGACCGGTTTTCCCGGTAATCCGTATTTGGG (site CAGTCGACTCC)” to “CAGGGCACATGGACCGGTTTTCCCGGTAATCCGTATTTGGA (site CAGGGCACTTC)”, the “recombinant UMI read abundance (log10)” value rises from 0.0086 to 0.471.

First: CAGGTCGCATGGACCGGTTTTCCCGGTAATCCGTATTTGAT (site CAGGTCGCTAT)
Second: CAGTCAACATGGACCGGTTTTCCCGGTAATCCGTATTTGGG (site CAGTCAACTCC)
The “recombinant UMI read abundance (log10)” value of the first is higher: 2.33 for the first, 0.146 for the second.

“CAGTCAACATGGACCGGTTTTCCCGGTAATCCGTATTTGGG (site CAGTCCACTCC)” and “CAGTCAACATGGACCGGTTTTCCCGGTAATCCGTATTTGGG (site CAGTCGACTCC)” are within 0.2 log units of each other in “recombinant UMI read abundance (log10)” value: 0.018 for the first, 0.0226 for the second.

Going from “CAGTCAACATGGACCGGTTTTCCCGGTAATCCGTATTTGGG (site CAGTCTACTCC)” to “CAGTCGACATGGACCGGTTTTCCCGGTAATCCGTATTTGGT (site CAGTCGACTAC)”, the “recombinant UMI read abundance (log10)” value rises from 0.0255 to 1.13.

Going from “CAGTCGACATGGACCGGTTTTCCCGGTAATCCGTATTTGGT (site CAGTCGACTCC)” to “CAGTCGACATGGACCGGTTTTCCCGGTAATCCGTATTTGGT (site CAGTCGACTGC)”, the “recombinant UMI read abundance (log10)” value rises from 0.0077 to 1.41.

Going from “CAGTCGACATGGACCGGTTTTCCCGGTAATCCGTATTTGGT (site CAGTCGACTTC)” to “CAGTGCTCATGGACCGGTTTTCCCGGTAATCCGTATTTGGT (site CAGTGCTCTAC)”, the “recombinant UMI read abundance (log10)” value rises from 0.56 to 2.49.

“CAGTTGACATGGACCGGTTTTCCCGGTAATCCGTATTTGGG (site CAGTAGACTCC)” and “CAGTTGACATGGACCGGTTTTCCCGGTAATCCGTATTTGGG (site CAGTCGACTCC)” are within 0.2 log units of each other in “recombinant UMI read abundance (log10)” value: 0 for the first, 0.0208 for the second.

First: CAGTTGACATGGACCGGTTTTCCCGGTAATCCGTATTTGGG (site CAGTGGACTCC)
Second: CAGTTGACATGGACCGGTTTTCCCGGTAATCCGTATTTGGG (site CAGTTGACTCC)
The “recombinant UMI read abundance (log10)” value of the first is lower: 0.00569 for the first, 0.53 for the second.

Going from “CATAAAGCATGGACCGGTTTTCCCGGTAATCCGTATTTGAT (site CATAAAGCTAT)” to “CATAAAGCATGGACCGGTTTTCCCGGTAATCCGTATTTGAT (site CCTAAAGCTAT)”, the “recombinant UMI read abundance (log10)” value falls from 2.1 to 0.00418.

“CATAAAGCATGGACCGGTTTTCCCGGTAATCCGTATTTGAT (site CGTAAAGCTAT)” and “CATAAAGCATGGACCGGTTTTCCCGGTAATCCGTATTTGAT (site CTTAAAGCTAT)” are within 0.2 log units of each other in “recombinant UMI read abundance (log10)” value: 0.166 for the first, 0 for the second.

Going from “CATACGCCATGGACCGGTTTTCCCGGTAATCCGTATTTGGG (site CATACGCCTCC)” to “CATCAGCCATGGACCGGTTTTCCCGGTAATCCGTATTTGAG (site CATCAGCCTCT)”, the “recombinant UMI read abundance (log10)” value rises from 0.0136 to 0.441.

First: CATCAGTCATGGACCGGTTTTCCCGGTAATCCGTATTTGCA (site CATCAGTCTTG)
Second: CATCCAACATGGACCGGTTTTCCCGGTAATCCGTATTTGTC (site CATCCAACTGA)
The “recombinant UMI read abundance (log10)” value of the first is higher: 3.13 for the first, 2.17 for the second.

First: CATCGCACATGGACCGGTTTTCCCGGTAATCCGTATTTGGC (site CATCGCACTGC)
Second: CATCGCCCATGGACCGGTTTTCCCGGTAATCCGTATTTGAT (site CATCGCCCTAT)
The “recombinant UMI read abundance (log10)” value of the first is higher: 2.26 for the first, 0.725 for the second.

Compared with “CATCTCTCATGGACCGGTTTTCCCGGTAATCCGTATTTGTA (site CATCTCTCTTA)”, “CATCTCTCATGGACCGGTTTTCCCGGTAATCCGTATTTGTA (site CCTCTCTCTTA)” is lower in “recombinant UMI read abundance (log10)” value: 2.66 for the first, 1.42 for the second.

First: CATCTCTCATGGACCGGTTTTCCCGGTAATCCGTATTTGTA (site CGTCTCTCTTA)
Second: CATCTCTCATGGACCGGTTTTCCCGGTAATCCGTATTTGTA (site CTTCTCTCTTA)
The “recombinant UMI read abundance (log10)” value of the first is lower: 1.23 for the first, 1.98 for the second.

Going from “CATGAGGCATGGACCGGTTTTCCCGGTAATCCGTATTTGGT (site CATGAGGCTAC)” to “CATGCCTCATGGACCGGTTTTCCCGGTAATCCGTATTTGCT (site CATGCCTCTAG)”, the “recombinant UMI read abundance (log10)” value rises from 1.12 to 2.76.

Compared with “CATGGAACATGGACCGGTTTTCCCGGTAATCCGTATTTGGA (site CATGGAACTTC)”, “CATGGCACATGGACCGGTTTTCCCGGTAATCCGTATTTGGA (site CATGGCACTTC)” is lower in “recombinant UMI read abundance (log10)” value: 1.99 for the first, 0.46 for the second.

“CATGTCACATGGACCGGTTTTCCCGGTAATCCGTATTTGGG (site CAAGTCACTCC)” and “CATGTCACATGGACCGGTTTTCCCGGTAATCCGTATTTGGG (site CACGTCACTCC)” are within 0.2 log units of each other in “recombinant UMI read abundance (log10)” value: 0.0107 for the first, 0.0251 for the second.

“CATGTCACATGGACCGGTTTTCCCGGTAATCCGTATTTGGG (site CAGGTCACTCC)” and “CATGTCACATGGACCGGTTTTCCCGGTAATCCGTATTTGGG (site CATGTCACTCC)” are within 0.2 log units of each other in “recombinant UMI read abundance (log10)” value: 0.0142 for the first, 0.00831 for the second.

First: CATGTGGCATGGACCGGTTTTCCCGGTAATCCGTATTTGCT (site CATGTGGCTAG)
Second: CATGTTCCATGGACCGGTTTTCCCGGTAATCCGTATTTGTT (site CATGTTCCTAA)
The “recombinant UMI read abundance (log10)” value of the first is higher: 1.39 for the first, 0.678 for the second.

Going from “CATTCAACATGGACCGGTTTTCCCGGTAATCCGTATTTGAC (site CATTCAACTGT)” to “CATTGTACATGGACCGGTTTTCCCGGTAATCCGTATTTGGG (site CATTGTACTCC)”, the “recombinant UMI read abundance (log10)” value falls from 0.406 to 0.0267.

Going from “CATTTCTCATGGACCGGTTTTCCCGGTAATCCGTATTTGTT (site CATTTCTCTAA)” to “CATTTGCCATGGACCGGTTTTCCCGGTAATCCGTATTTGTG (site CATTTGCCTCA)”, the “recombinant UMI read abundance (log10)” value falls from 1.52 to 0.302.

“CCAAAACCATGGACCGGTTTTCCCGGTAATCCGTATTTGTT (site CCAAAACCTAA)” and “CCAAAGGCATGGACCGGTTTTCCCGGTAATCCGTATTTGCC (site CCAAAGGCTGG)” are within 0.2 log units of each other in “recombinant UMI read abundance (log10)” value: 0.00598 for the first, 0 for the second.

With “CCAACTACATGGACCGGTTTTCCCGGTAATCCGTATTTGGC (site CCAACTACTGC)” the “recombinant UMI read abundance (log10)” value was 0.
